What is called Solubility is the concentration that dissolves in the medium under given conditions. As usually defined, the Cmax is the highest concentration seen after dosing.

Data on 5 compounds can be found in patent publication US20260327235A1, “CRYSTAL FORM OF PYRIMIDO AZACYCLO COMPOUND, AND PREPARATION METHOD THEREFOR AND USE THEREO” (TYK MEDICINES, INC., priority 2023, published 2026).

Series [1] can be described thus: Evaluation of amorphous free base: slurry in solvent, 2 days. It is filed as physicochemical. The note with it: for Resulting crystal form: room temperature, 2 days. The procedure: 100 mg of the amorphous free base sample obtained in the present invention was weighed and a solvent was added to form a suspension. The mixture was stirred at room temperature for 2 days, and the results are as follows: […]

A short description of series [2]: Solid state stability study, 7 days. The class given is physicochemical. Particulars: for Purity: 10080 min; for Crystal stability (in words): 60 °C/closed and 40 °C/75% RH; for Initial purity: stability baseline; for Solid-state stability (in words): summary; for HPLC purity (area %) at 168 h: solid state. As for the experimental part: (§1) HPLC analysis was performed using Agilent HPLC 1260 series instruments.

Series [3] can be described thus: Rat pharmacokinetics after single oral administration. The class given is in vivo, SD rats. The note with it: for In vivo exposure level (in words): compared with free base crystal form I.
Series [4] is described as follows: Dog pharmacokinetics after single oral administration. It is filed as in vivo, dogs. Particulars: compared with free base crystal form I.
Series [5] can be described thus: Pharmacokinetic studies in animals, summary statements. It is filed as in vivo. The note with it: for In vivo exposure levels in animals (in words): summary; for Absorption (in words) / Bioavailability in vivo (in words) / Blood drug concentration distribution (in words) / Stability in vivo (in words): pharmacokinetic studies.
A short description of series [6]: Rough solubility of free base crystal form I in solvents by visual inspection. It is filed as physicochemical. The note with it: room temperature.
Series [7] in a line: Solubility test in biological media and water at 37 °C (HPLC). It is filed as physicochemical. Particulars: for Solubility: calculated using free base. The procedure: as §1
The solubility of salt was calculated using free base.

The mark [8] stands for this setting: gavage, 10 mpk, 0.5% MC + 1% tween 80, plasma, 10 mg/kg.
Setting [9] is: FaSSIF (pH = 6.49), 0.5 h, 37 °C, LOQ ~1.0 μg/mL.
[10] abbreviates: FaSSIF (pH = 6.49), solution at 0.5 h.
Where [11] appears, read: FaSSIF (pH = 6.49), solution at 2.0 h.
[12] abbreviates: FaSSIF (pH = 6.49), solution at 24 h.
Setting [13] is: FeSSIF (pH = 5.00), solution at 0.5 h.
The mark [14] stands for this setting: FeSSIF (pH = 5.00), solution at 2.0 h.
Setting [15] is: FeSSIF (pH = 5.00), solution at 24 h.
[16] abbreviates: SGF (pH = 1.19), solution at 0.5 h.
Setting [17] is: SGF (pH = 1.19), solution at 2.0 h.
[18] abbreviates: SGF (pH = 1.19), solution at 24 h.
[19] abbreviates: Water (pH = 5.45), 0.5 h/2 h/24 h, 37 °C, LOQ ~1.0 μg/mL.
The mark [20] stands for this setting: Water (pH = 5.45), solution at 0.5 h.
The mark [21] stands for this setting: Water (pH = 5.45), solution at 2.0 h.
[22] abbreviates: Water (pH = 5.45), solution at 24 h.

Converted amounts (≈) assume the structure as drawn. “Also recorded” adds a separate entry of the source. Some results are limits rather than exact numbers.

For the compound `CCn1ncc2c(Nc3cc(C)[nH]n3)nc([C@H]3CC[C@](OC)(C(=O)N[C@@H](C)c4cnc(-n5cc(F)cn5)cn4)CC3)nc21` [Amorphous free base], the values for the Resulting crystal form entry in series [1] (Acetone suspension) and in series [1] (Methanol suspension) were “form III” and “form I”, respectively. For the same compound, the “Stability of amorphous sample (in words)” value in series [1] (in the solvent) is “unstable and easily transformed into other crystal forms in the solvent”.
`CCn1ncc2c(Nc3cc(C)[nH]n3)nc([C@H]3CC[C@](OC)(C(=O)N[C@@H](C)c4cnc(-n5cc(F)cn5)cn4)CC3)nc21` [Free base crystal form III]: in series [2] (40 °C/75% RH, 7 days), the XRPD result is “Unchanged” and the Purity amounted to 99.253 Area %. Further, in series [2] (60 °C/Closed, 7 days), the XRPD entry was “Unchanged” and the Purity turned out to be 99.212 Area %. In addition, the “Crystal stability (in words)” value in series [2] (7 days) is reported as “good”. This compound returned an Initial purity in series [2] of 99.316 Area %. Besides, the “In vivo exposure level (in words)” value in series [3] is on record as “higher than those of free base crystal form I”. Also, the “In vivo exposure level (in words)” value in series [4] is “higher than those of free base crystal form I”. Further, in series [5], the “In vivo exposure levels in animals (in words)” value (“In vivo exposure levels” below) is “higher animal exposure levels compared to the free base crystal form I”, the “Absorption (in words)” value is “easy to absorb”, the “Bioavailability in vivo (in words)” value is reported as “high bioavailability” and the “Blood drug concentration distribution (in words)” value is given as “good blood drug concentration distribution”. Also, the “Stability in vivo (in words)” value in series [5] was “good stability in vivo”.
With `CCn1ncc2c(Nc3cc(C)[nH]n3)nc([C@H]3CC[C@](OC)(C(=O)N[C@@H](C)c4cnc(-n5cc(F)cn5)cn4)CC3)nc21` [Free base crystal form I], the Solubility in series [6] (2-Me-THF) lay in the range of 11100 to 12500 µg/mL; in series [6] (Acetone), 7100 to 8300 µg/mL; in series [6] (DCM), 4600 to 5000 µg/mL; in series [6] (EA), 2200 to 2300 µg/mL; in series [6] (IPAc), 1500 to 1600 µg/mL; in series [6] (THF), 41700 to 50000 µg/mL. In addition, the Solubility in series [6] (organic solvent or mixture, ACN, read-out: Solubility) is about 800 µg/mL (≈ 1.36 mM). Moreover, the “Solubility in the remaining solvents (in words)” value in series [6] (solvents other than DMSO and THF) is “poor solubility”. Also, the AUC0-last in series [3] (setting [8]) was 1172.00 ng·h/mL. Besides, in series [3] (setting [8]), the AUCINF amounted to 1197.00 ng·h/mL. The Cmax in series [3] (setting [8]) is 158.00 ng/mL. Besides, in series [3] (setting [8]), the T1/2 was found to be 2.69 h.
For the compound `CCn1ncc2c(Nc3cc(C)[nH]n3)nc([C@H]3CC[C@](OC)(C(=O)N[C@@H](C)c4cnc(-n5cc(F)cn5)cn4)CC3)nc21` [Fumarate crystal form I], the values for the Solubility entry in series [7] (setting [9]) and in series [7] (setting [19]) were “<LOQ^1” and “<LOQ”, respectively. Moreover, the pH was 6.48 in series [7] (setting [10]); 6.54 in series [7] (setting [11]); 5.91 in series [7] (setting [12]); 5.01 in series [7] (setting [13]); 5.03 in series [7] (setting [14]); 4.93 in series [7] (setting [15]). In addition, the pH in series [7] (setting [16]) is 1.17; in series [7] (setting [17]), 1.22; in series [7] (setting [18]) it was 1.27; in series [7] (setting [20]) it was 5.22; in series [7] (setting [21]) it was 5.84; in series [7] (setting [22]), 3.50. Besides, the “XRPD (24 h)” value in series [7] (solid form after 24 h in FaSSIF (pH = 6.49)) is on record as “amorphous”. Also, the “Chemical purity change (in words)” value in series [2] (40 °C/75% RH, 7 days) was “slightly decreases”. Also, the XRPD result is recorded as “Unchanged” in series [2] (40 °C/75% RH, 7 days) and “Unchanged” in series [2] (60 °C/Closed, 7 days). The Purity stood at 97.914 Area % in series [2] (40 °C/75% RH, 7 days) and 98.119 Area % in series [2] (60 °C/Closed, 7 days). Moreover, the “Crystal stability (in words)” value in series [2] (7 days) is listed as “good”. Further, the “Stability (in words)” value in series [2] (closed high temperature condition (60 °C), 7 days) was “good”. For the same compound, in series [2], the Initial purity amounted to 98.062 Area %. The “Solid-state stability (in words)” value in series [2] is listed as “good solid-state stability”. The “In vivo exposure level (in words)” value in series [3] and in series [4] was “higher than those of free base crystal form I” each time. For the same compound, the “In vivo exposure levels” value in series [5] is given as “excellent in vivo exposure levels; also recorded: higher animal exposure levels compared to the free base crystal form I”. Besides, the “Absorption (in words)” value in series [5] is “easy to absorb”. The “Bioavailability in vivo (in words)” value in series [5] is recorded as “high bioavailability”. The “Blood drug concentration distribution (in words)” value in series [5] is listed as “good blood drug concentration distribution”. For the same compound, the “Stability in vivo (in words)” value in series [5] is given as “good stability in vivo”.
In the case of `CCn1ncc2c(Nc3cc(C)[nH]n3)nc([C@H]3CC[C@](OC)(C(=O)N[C@@H](C)c4cnc(-n5cc(F)cn5)cn4)CC3)nc21` [Malate crystal form I], the Solubility result in series [7] (setting [9]) is “<LOQ”; in series [7] (FaSSIF (pH = 6.49), 24 h, 37 °C, LOQ ~1.0 μg/mL), “<LOQ”; in series [7] (SGF (pH = 1.19), 0.5 h, 37 °C, 30 min) it was 204.753 µg/mL; in series [7] (SGF (pH = 1.19), 24 h, 37 °C, 1440 min) it was 79.977 µg/mL; in series [7] (setting [19]), “<LOQ”. Moreover, the pH was determined as 6.45 in series [7] (setting [10]); 6.30 in series [7] (setting [11]); 5.61 in series [7] (setting [12]); 4.95 in series [7] (setting [13]); 4.96 in series [7] (setting [14]); 4.90 in series [7] (setting [15]). The pH in series [7] (setting [16]) was 1.27; in series [7] (setting [17]) it was 1.29; in series [7] (setting [18]), 1.33; in series [7] (setting [20]), 4.76; in series [7] (setting [21]) it was 4.19; in series [7] (setting [22]), 3.88. In series [7] (SGF medium, 0.5 hours, 37 °C, 30 min), this compound had a Maximum solubility of 200 µg/mL. Further, the “XRPD (24 h)” value in series [7] (solid form after 24 h in FeSSIF (pH = 5.00)) is “amorphous”. The XRPD result in series [2] (40 °C/75% RH, 7 days) is “Unchanged”; in series [2] (60 °C/Closed, 7 days) it was “Unchanged”. The “Crystal stability (in words)” value in series [2] (7 days) is “good”. For the same compound, in series [2], the Initial purity was 98.772 Area %. The HPLC purity (area %) at 168 h was determined as 98.7% in series [2] (40 °C/75% RH, 7 days) and 98.8% in series [2] (60 °C/Closed, 7 days). Further, the “Solid-state stability (in words)” value in series [2] is “good solid-state stability”. Moreover, the “In vivo exposure level (in words)” value in series [3] and in series [4] was “higher than those of free base crystal form I” in each case. For the same compound, the AUC0-last in series [3] (setting [8]) came to 1209.00 ng·h/mL. In addition, the AUCINF in series [3] (setting [8]) stood at 1217.00 ng·h/mL. Further, in series [5], the “In vivo exposure levels” value is given as “excellent in vivo exposure levels; also recorded: higher animal exposure levels compared to the free base crystal form I”. Further, the “Absorption (in words)” value in series [5] was “easy to absorb”. Moreover, the “Bioavailability in vivo (in words)” value in series [5] is “high bioavailability”. The “Blood drug concentration distribution (in words)” value in series [5] was “good blood drug concentration distribution”. In series [5], the “Stability in vivo (in words)” value is “good stability in vivo”.
